Results: US11612576B2 (Thiogenesis Therapeutics, Inc., priority 2017, dated 2023)
Structures can show the parent of a compound that is named as a salt. Where two headings read alike, the source gives them in different places.

Tests used:
[1] = in vivo; cited from earlier work
[2] = Physical characteristics of TTI-0102 salt forms; format: physicochemical; details: compared with free base
Procedure: TTI-0102 was prepared as in Example 14. The crude product was obtained by evaporation of water and DMF. The residue was suspended in ethyl acetate/water; precipitated dicyclohexylurea (DCU) was filtered off. The solution was evaporated and suspended in methanol. The precipitate (unreacted pantothenic acid) was filtered off. The filtrate was concentrated and then dissolved in a small volume of methanol. After addition of dichloromethane the cystamine hydrochloride precipitated and was filtered off. After evaporation of solvent, the residue was crystallized from methanol:acetone (1:10) to provide TTI-1 hydrochloride.
The tartrate salt was formed and crystallized from a MeOH:DCM mixture. The solid form was filtered off (precipitate) and filtrate was evaporated.

[3] = Cysteamine and pantetheine in rat gastrointestinal contents six hours after dosing (Example 13); format: in vivo, Sprague-Dawley rats
Procedure: In addition to the plasma samples, gastrointestinal contents (stomach contents, proximal small intestinal contents, distal small intestinal contents and cecum/colon contents) were obtained from rats at the end of the study (6 hours after dosing) and snap frozen. Tissue levels of cysteamine and pantetheine were measured in the gastrointestinal contents. The protocol for tissue analysis entailed (i) smashing frozen tissue fragments over dry ice to obtain small pieces; (ii) weighing several frozen tissue pieces (˜[…]) into a tared 1.5 ml microcentrifuge tube with two metal ball bearings and immediately storing on dry ice; (iii) homogenizing tissue fragments cryogenically using a Retsch Cryomill at 250 hertz for 5 minutes; (iv) thawing each sample on ice, adding two volumes of water (w:v., i.e. 2 microliters of water were added for each milligram of homogenized tissue) to make an approximately 1:3 dilution; (v) removing 20 ul of the resuspended tissue powder to a new tube, adding 2.2 ul of 50 mM TCEP (5 mM final concentration) and incubating for 45 minutes at 37 degrees C. (TCEP treated samples), or adding 2.2 ul of deioinized water in place of TCEP (no TCEP samples); (vi) adding 3.5 volumes of acetonitrile:0.1% formic acid, vortex mixing for 15 seconds, and then pelleting precipitated protein by centrifugation for 10 minutes at 14,000 rpm in a microcentrifuge at 4 degrees C.; (vii) transferring 25 ul of supernatant to a new tube containing 75 ul of ACN/0.1% FA; (vii) injecting samples on the LC-MS apparatus described above, using the same column and run conditions as for plasma samples.

[4] = Dissolution of the dose in saline before gavage; format: physicochemical; details: 120 mg/kg dose (311.68 mg/kg compound 2) in 3 milliliters of saline
[5] = molecular target: T1, tissue transglutaminase (transglutaminase 2, TG2) (Homo sapiens, UniProt P21980); details: cited from earlier work
T1 sequence (P21980 1-687): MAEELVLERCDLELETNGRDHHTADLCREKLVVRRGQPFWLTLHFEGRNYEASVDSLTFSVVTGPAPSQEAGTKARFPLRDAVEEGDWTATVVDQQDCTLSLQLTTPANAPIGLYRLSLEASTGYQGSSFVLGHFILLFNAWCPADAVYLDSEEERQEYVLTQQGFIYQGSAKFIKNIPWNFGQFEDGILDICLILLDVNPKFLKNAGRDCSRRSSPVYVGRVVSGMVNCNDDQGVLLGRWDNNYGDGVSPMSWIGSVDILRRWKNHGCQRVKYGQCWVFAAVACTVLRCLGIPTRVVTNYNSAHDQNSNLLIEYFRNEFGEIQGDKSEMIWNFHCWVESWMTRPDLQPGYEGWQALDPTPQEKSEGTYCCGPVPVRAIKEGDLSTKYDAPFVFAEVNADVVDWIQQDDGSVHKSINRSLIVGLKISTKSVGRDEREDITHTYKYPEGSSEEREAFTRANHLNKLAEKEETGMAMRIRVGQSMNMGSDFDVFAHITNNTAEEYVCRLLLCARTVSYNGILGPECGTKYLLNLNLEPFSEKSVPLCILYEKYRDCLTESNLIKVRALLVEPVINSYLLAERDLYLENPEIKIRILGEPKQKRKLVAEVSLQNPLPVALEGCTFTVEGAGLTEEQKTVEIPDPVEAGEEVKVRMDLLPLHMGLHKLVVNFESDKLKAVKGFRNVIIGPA

[6] = tested on: mouse models of HD; details: cited from earlier work
[7] = Rat pharmacokinetic study of compound 2: plasma cysteamine after gavage; format: in vivo, Sprague-Dawley rats; details: cysteamine HCl, 30 mg/kg cysteamine base
Procedure: The compound 2 doses were prepared for 250 gram rats, but the actual masses of the rats at the time of drug administration varied from 267-300 grams, so the actual doses, normalized to body weight, ranged from 26.1-27.1 mg/kg in group 1, 51.7-56.2 mg/kg in group 2 and 108.3-109.5 mg/kg in group 3. Nonetheless, for convenience those doses are referred to as 30, 60 and 120 mg/kg.
Plasma was obtained from blood by centrifugation and snap frozen.

[8] = rat, in vivo
Procedure: Thus in the discussion below, and in the accompanying figures, a “30 mg/kg” dose of TTI-0102 means 68.73 mg/kg was administered, a “60 mg/kg” dose of TTI-0102 means 137.46 mg/kg was administered and a “100 mg/kg” dose of TTI-0602 (aka compound 2) means 229.1 mg/kg was administered.
Each of the four compounds was administered via gavage to three male Sprague-Dawley rats weighing approximately 300 grams. All doses were dissolved in 2.5 milliliters of saline.
Blood samples were obtained from rats immediately after dosing (within one minute) and 10, 20, 30, 45, 60, 90, 120, 180, 240, 300 and 360 minutes after dosing via carotid artery catheters surgically implanted before the PK study. Plasma was obtained from blood by centrifugation, snap frozen and stored at −80 degrees Celsius. Several days later plasma samples were thawed on ice and each aliquoted to two paired tubes (20 μL per tube), one of which was processed for measurement of thiols (after quantitative disulfide bond reduction), while the other was processed for analysis of disulfides.
Briefly, 2.2 ul of freshly prepared 50 mM TCEP stock solution was added to 20 ul of plasma and the sample incubated at 37 degrees C. for 45 minutes. The volume of plasma in the paired (non-reduced) sample was adjusted by adding 2.2 ul of deionized water.
After the TCEP reduction step all plasma samples were deproteinized by adding 3.5 volumes of ice cold acetonitrile (ACN)/1% formic acid (FA) solution containing internal standards (77 μL of ACN/1% FA solution was added to 22.2 μL of plasma).
The denatured protein was pelleted by centrifugation at 14,000 rpm for 10 minutes at 4 degrees C. in a microcentrifuge. The supernatant (25 ul) was removed to a new tube, mixed with 75 ul of ACN/0.1% FA solution and injected directly into a 150×2 mm Atlantis hydrophilic interaction liquid chromatography (HILIC) column (Waters; Milford, Mass.). Metabolites were analyzed using a Nexera X2 U-HPLC (Shimadzu) and a Q-Exactive hybrid quadrupole Orbitrap mass spectrometer (Thermo Fisher Scientific). […]

[9] = cited from earlier work
[10] = tested on: CYP1A2, CYP2B6, CYP2C8, CYP2C9, CYP2C19, CYP2D6, CYP2E1, CYP2A6, CYP3A4; details: in vitro; cited from earlier work
[11] = tested on: CYP1A2, CYP2A6, CYP2B6, CYP2C8, CYP2C9, CYP2C19, CYP2D6, CYP2E1 and CYP3A4; details: in vitro; cited from earlier work
[12] = tested on: P-gp, OCT2, BCRP, OATP1B1, OATP1B3, OAT1, OAT3, OCT1; details: in vitro; cited from earlier work
[13] = tested on: matrix metalloproteinases (MMPs); details: high concentrations (e.g. 25 millimolar); cited from earlier work
[14] = tested on: Plasmodium Falciparum; details: in vitro and in mouse models of malaria; cited from earlier work
[15] = tested on: Pseudomonas aeruginosa; details: cited from earlier work
[16] = tested on: kidney fibrosis; details: ureteral stenosis and renal ischemia/reperfusion injury; cited from earlier work
[17] = tested on: erythrocytes from sickle cell anemia patients; details: cited from earlier work
[18] = tested on: xenograft models; details: cited from earlier work

CC(C)(COP(=O)(O)O)[C@@H](O)C(=O)NCCC(=O)NCCS [4-phosphopantetheine]
half life in blood [1]: over 3 hours

CC(C)(CO)[C@@H](O)C(=O)NCCC(=O)NCCSSCCN [acetate salt of TTI-0102]
stability of salt form [2]: more stable than the free base

CC(C)(CO)[C@@H](O)C(=O)NCCC(=O)NCCSSCCN [compound 1, cysteamine-(R)-pantetheine disulfide]
fraction of small intestinal pantetheine in the form of the thiol ([3]; compound 1 100 mg/kg, no TCEP vs TCEP samples): about half | pantetheine at all levels of the gastrointestinal tract (stomach, proximal and distal small intestine, colon) ([3]; compound 1 100 mg/kg, six hours after dosing): high levels of pantetheine are present | colon contents (TCEP reduced) ([3]; compound 1, six hours after dosing): high concentrations of both cysteamine and pantetheine

CC(=O)NCCSSCCNC(=O)CCNC(=O)[C@H](O)C(C)(C)CO [compound 2, N-acetylcysteamine-(R)-pantetheine disulfide]
dissolution of dose in saline [4]: did not completely dissolve in saline

NCCSSCCN [cystamine]
inhibition of tissue transglutaminase (TG2) [5]: TG2 inhibitor | effects in several mouse models of Huntington's disease ([6]; mouse, in vivo): improves motor function and extends life-span

Cl.NCCS [cysteamine HCl, cysteamine hydrochloride]
peak plasma cysteamine concentration [7]: over 200 uM | time by which cysteamine concentration declined to less than half maximal [7]: ≤ 90 min | time in which half of the dose is absorbed [8]: one | time of peak observed concentration after gavage [8]: 10 min | Cmax ([8]; 30 mg/kg): ~55.3 µM

NCCS [cysteamine bitartrate]
Cmax ([9]; read-out: C max of cysteamine, cysteamine bitartrate 20 mg/kg cysteamine base equivalent): 81.9 µM

NCCS.O=C(O)C(O)C(O)C(=O)O (stereo not shown) [cysteamine bitartrate]
fraction of cysteamine eliminated by 150 minutes (inferred) ([9]; cysteamine bitartrate 20 mg/kg): over 95% | time by which cysteamine levels returned to baseline ([9]; cysteamine bitartrate 20 mg/kg): ≤ 2 h | tissue half life of cysteamine ([9]; cysteamine bitartrate 20 mg/kg): 25 to 29 min

NCCS [cysteamine, 2-aminoethanethiol]
half life in blood [1]: about 25 minutes | metabolism by CYP1A2, CYP2B6, CYP2C8, CYP2C9, CYP2C19, CYP2D6 and CYP2E1 [10]: likely to be metabolized by multiple CYP enzymes | metabolism by CYP2A6 or CYP3A4 [10]: not by CYP2A6 or CYP3A4 | inhibition of CYP1A2, CYP2A6, CYP2B6, CYP2C8, CYP2C9, CYP2C19, CYP2D6, CYP2E1 and CYP3A4 [11]: not an inhibitor | substrate of BCRP, OATP1B1, OATP1B3, OAT1, OAT3 and OCT1 [12]: not a substrate | substrate of P-gp and OCT2 [12]: is a substrate | inhibition of tissue transglutaminase (TG2) [5]: inhibits | inhibition of matrix metalloproteinases [13]: inhibits | proliferation of Plasmodium Falciparum [14]: inhibits proliferation | activity against Pseudomonas aeruginosa and other CF pathogens [15]: bactericidal | efficacy in mouse models of kidney fibrosis [16]: effective | sickling under hypoxic conditions [17]: marked inhibition of sickling | survival of mice [18]: prolonged survival of mice in a dose-dependent manner without toxicity | beneficial effects in R6/2 HD mouse model ([6]; R6/2 mouse model): amelioration of weight loss and motor abnormalities, and prolongation of survival
